In patent publication US4227002A, “Halo-A-23187 derivatives” (Eli Lilly and Company, priority 1978, dated 1980):
“Also recorded” adds a separate entry of the source.

What was measured:
[1] = test system: Staphylococcus aureus (H-Heatley strain, NRRL B-314); assay: antibacterial bioassay (J. E. Westhead); format: cell-based
From the text: The compounds of this invention are useful antibacterial agents. In this aspect, these compounds may be used in the same manner in which the parent antibiotic is used, as described in U.S. Pat. No. 3,923,823. A bioassay for the antibacterial activity of A-23187 has been described by J. E. Westhead in Antimicrobial Agents and Chemotherapy 11 (5), 916-918 (1977). The test organism for this bioassay is Staphylococcus aureus (H-Heatley strain, NRRL B-314).

[2] = target: cation transport ATPase in liver mitochondria; assay: inhibition of cation transport ATPase in liver mitochondria, in vitro; format: biochemical
From the text: In yet another aspect, the compounds of this invention are active as inhibitors of the enzyme ATPase. ATPase, an alkali-metal-sensitive enzyme found in cell membranes, is involved in the energy necessary for active transport. "Active transport" refers to the energy-requiring series of operations whereby intracellular and extracellular fluids maintain their compositions. Inhibitors of ATPase reduce the energy required for active transport. Table V summarizes the results of in vitro tests measuring inhibition of cation transport ATPase in liver mitochondria [measured as half effective concentration (Ic 50) in mcg/ml].

mice = assay: acute toxicity in mice, intraperitoneal; format: in vivo; conditions: intraperitoneally
Description: (§1) The compounds of the present invention are, in general, less toxic than the parent antibiotic. Table II summarizes the acute toxicities of representative compounds in mice, expressed as LD50, when the compounds are administered intraperitoneally.

[3] = test system: isolated guinea-pig atria; assay: cardiac contractility in isolated guinea-pig atria; conditions: 10^-5 molar
From the text: The compounds of this invention are also potential cardiotonic agents. […] Response to this test is expressed as a percentage of the maximal contractile tension that could be elicited by a challenge dose of norepinephrine (10^-4 M). For a more detailed description of this test, see U.S. Pat. No. 3,985,893. In this test, 4-bromo-A-23187 free acid and its Mg^++ salt, each at a 10^-5 molar concentration, produced mean increases in contractile tension of 48 and 59 percent, respectively.

[4] = acute toxicity in mice, intraperitoneal; format: in vivo; conditions: mouse, in vivo, ip, intraperitoneally
Description: as §1

bovine spermatozoa = assay: Ca^++ influx induced in bovine spermatozoa, inhibition by Mg^++; format: cell-based; conditions: for Ca^++ Influx: bovine spermatozoa
From the text: The compounds of this invention affect ion transport with altered selectivities compared to the parent compound.

Cuinea Pig Sperm = assay: effect on acrosome reaction, guinea pig sperm; format: cell-based; conditions: untreated: 110
From the text: Table IV summarizes the effect of an illustrative compound of this invention on mammalian sperm motility and acrosome reaction.

Bovine Sperum = conditions: bovine sperm; untreated: 2
mammalian sperm [5] = conditions: cited from earlier work
mammalian sperm [6] = conditions: cited from earlier work; remark: listed apart in the source
[7] = cited from earlier work
[8] = ATPase induced by K^+ monazomycin

CNc1c(Br)cc2oc(CC3OC4(CCC3C)OC(C(C)C(=O)c3cc(Br)c[nH]3)C(C)CC4C)nc2c1C(=O)O (stereo not drawn) [4,23-dibromo-A-23187 (free acid), 6-bromo-5-(methylamino)-2-[[3β,9α,11β-trimethyl-8-[1α-methyl-2-oxo-2-(4-bromo-1H-pyrrol-2-yl)ethyl]-1,7-dioxaspiro[5.5]undec-2β-yl]methyl]-4-benzoxazolecarboxylic acid]
Bioassay [1]: 940 µg/mL
half effective concentration (Ic 50) ([2]; ATPase induced by CaCl2): 0.9 µg/mL
half effective concentration (Ic 50) [2, 8]: 0.5 µg/mL

CNc1ccc2oc(CC3OC4(CCC3C)OC(C(C)C(=O)c3cc(Cl)c[nH]3)C(C)CC4C)nc2c1C(=O)[O-].CNc1ccc2oc(CC3OC4(CCC3C)OC(C(C)C(=O)c3cc(Cl)c[nH]3)C(C)CC4C)nc2c1C(=O)[O-].[Mg+2] (stereo not drawn) [4-chloro-A-23187 (Mg complex)]
LD50 (mice): 29.8 mg/kg × 1

CNc1ccc2oc(CC3OC4(CCC3C)OC(C(C)C(=O)c3cc(Br)c[nH]3)C(C)CC4C)nc2c1C(=O)[O-].CNc1ccc2oc(CC3OC4(CCC3C)OC(C(C)C(=O)c3cc(Br)c[nH]3)C(C)CC4C)nc2c1C(=O)[O-].[Mg+2] (stereo not drawn) [4-bromo-A-23187 (Mg complex)]
LD50 (mice): 18.75 mg/kg × 1
mean increase in contractile tension, percentage of the maximal contractile tension elicited by norepinephrine (10^-4 M) [3]: 59%

CNc1ccc2oc(CC3OC4(CCC3C)OC(C(C)C(=O)c3ccc[nH]3)C(C)CC4C)nc2c1C(=O)O (stereo not drawn) [A-23187 (free acid), reference compound]
Bioassay [1]: 1060 µg/mL
LD50 [4]: 5.8 mg/kg
Ca^++ Influx (bovine spermatozoa; [Mg^++ ]/[Ca^++ ] 0): 3.5 nmole Ca^++ min × mg protein
Ca^++ Influx (bovine spermatozoa; [Mg^++ ]/[Ca^++ ] 5): 2.0 nmole Ca^++ min × mg protein
Ca^++ Influx (bovine spermatozoa; [Mg^++ ]/[Ca^++ ] 10): 1.2 nmole Ca^++ min × mg protein
Ca^++ Influx (bovine spermatozoa; [Mg^++ ]/[Ca^++ ] 20): 0.5 nmole Ca^++ min × mg protein
Time Until Acrosome Reaction (Cuinea Pig Sperm): 30 min
half effective concentration (Ic 50) ([2]; ATPase induced by CaCl2): 0.5 µg/mL
half effective concentration (Ic 50) [2, 8]: 0.5 µg/mL
Motility Index (Bovine Sperum): 4
activation of sperm motility (in words) (mammalian sperm [5]): activates the motility
induction of acrosome reaction (in words) (mammalian sperm [6]): induces the acrosome reaction
selectivity for transport of divalent over monovalent cations (in words) [7]: substantially selective for the transport of divalent over monovalent cations; also recorded: not complete

CNc1c(Br)cc2oc(CC3OC4(CCC3C)OC(C(C)C(=O)c3ccc[nH]3)C(C)CC4C)nc2c1C(=O)O (stereo not drawn) [4-bromo-A-23187 (free acid), 6-bromo(or chloro)-5-(methylamino)-2-[[3β,9α,-11β-trimethyl-8-[1α-methyl-2-oxo-2-(1H-pyrrol-2-yl)ethyl]-1,7-dioxaspiro[5.5]undec-2β-yl]-methyl]-4-benzoxazolecarboxylic acid]
Bioassay [1]: 835 µg/mL
LD50 [4]: 11.9 mg/kg
Ca^++ Influx (bovine spermatozoa; [Mg^++ ]/[Ca^++ ] 0): 3.4 nmole Ca^++ min × mg protein
Ca^++ Influx (bovine spermatozoa; [Mg^++ ]/[Ca^++ ] 20): 3.4 nmole Ca^++ min × mg protein
Ca^++ Influx (bovine spermatozoa; [Mg^++ ]/[Ca^++ ] 40): 3.4 nmole Ca^++ min × mg protein
Ca^++ Influx (bovine spermatozoa; [Mg^++ ]/[Ca^++ ] 80): 0.5 nmole Ca^++ min × mg protein
effectiveness of Mg^++ in inhibiting the induced influx of Ca^++ (in words) (bovine spermatozoa; compared with comparable dosage of A-23187): much less effective
Time Until Acrosome Reaction (Cuinea Pig Sperm): 30 min
half effective concentration (Ic 50) ([2]; ATPase induced by CaCl2): 0.9 µg/mL
half effective concentration (Ic 50) [2, 8]: 0.3 µg/mL
activation at 10 µM ([3]; Cavia porcellus, read-out: mean increase in contractile tension, percentage of the maximal contractile tension elicited by norepinephrine (10^-4 M)): 48%
Motility Index (Bovine Sperum): 5

CNc1c(Br)cc2oc(CC3OC4(CCC3C)OC(C(C)C(=O)c3[nH]c(Br)c(Br)c3Br)C(C)CC4C)nc2c1C(=O)O (stereo not drawn) [6-bromo-5-(methylamino)-2-[[3β,9α,11β-trimethyl-8-[1α-methyl-2-oxo-2-(3,4,5-tribromo-1H-pyrrol-2-yl)ethyl]-1,7-dioxaspiro[5.5]undec-2β-yl]methyl]-4-benzoxazolecarboxylic acid]
Bioassay [1]: 585 µg/mL

CNc1c(Cl)cc2oc(CC3OC4(CCC3C)OC(C(C)C(=O)c3ccc[nH]3)C(C)CC4C)nc2c1C(=O)O (stereo not drawn) [4-chloro-A-23187 (free acid), 6-bromo(or chloro)-5-(methylamino)-2-[[3β,9α,-11β-trimethyl-8-[1α-methyl-2-oxo-2-(1H-pyrrol-2-yl)ethyl]-1,7-dioxaspiro[5.5]undec-2β-yl]-methyl]-4-benzoxazolecarboxylic acid]
Bioassay [1]: 298 µg/mL
LD50 [4]: 10.5 mg/kg
half effective concentration (Ic 50) ([2]; ATPase induced by CaCl2): 10 µg/mL
half effective concentration (Ic 50) [2, 8]: 0.2 µg/mL
